Assay results reported in US20220324835A1 (Nurix Therapeutics, Inc., priority 2018, published 2022).

Legend:
Assay type in all cases: cell-based
[1] = system: T-cell; test: CD25 cell surface staining on T-cells stimulated with anti-CD3 antibody alone (Biological Example 2); conditions: primary human total T-cells, baseline = anti-CD3/anti-CD28 stimulated cells without inhibitor, read-out: CD25 staining, Anti-CD3 stimulation, fold change over baseline; for fold induction at 1 µM: 1 μM compound; for fold induction at 8 µM: 8 μM compound
[2] = system: human T-cells with allogenic immature dendritic cells; test: Allogenic mixed lymphocyte reaction (MLR), T-cell proliferation; conditions: 120 h, 5 days, baseline T-cells without Cbl-b inhibitor, read-out: Proliferation, fold change over baseline
Protocol: Cbl-b inhibitor effects on primary human T-cells were also evaluated in the context of an allogenic mixed lymphocyte reaction (MLR). Allogenic immature dendritic cells were generated under the following conditions. Peripheral blood mononuclear cells (PBMC) were obtained either: 1) by using Ficoll-Paque™ (GE Healthcare) for separation of peripheral blood hematopoietic cells from huffy coats of healthy human donors; or 2) directly from LeukoPak donations. […] Monocytes were cultured with 30 ng/mL of recombinant human GM-CSF and 20 ng/mL of recombinant human IL-4 for seven days to generate immature dendritic cells. Monocytes and T-cells were either isolated fresh from peripheral blood or thawed from frozen stocks. Human T-cells were isolated, labeled with CFSE and incubated with inhibitors as described above. […] Proliferation of the T-cells was evaluated by flow cytometry.
Readouts for the allogenic mixed lymphocyte reaction were reported as fold change over baseline. Baseline for this study was the measurement obtained from total human T-cells stimulated with allogenic immature dendritic cells, wherein the T-cells were not incubated with a Cbl-b inhibitor (Table 5). Increases in proliferation greater than 2-fold over baseline were considered a positive response (Table 5).

[3] = system: primary human B cells; test: B cell activation assay (CD69 on anti-IgM stimulated B cells); conditions: AUC of dose response curve (10 μM to 1 nM) of CD69 MFI normalized to DMSO control
Protocol: Peripheral blood mononuclear cells (PBMC) were obtained either: 1) by using Ficoll-Paque™ (GE Healthcare) for separation of peripheral blood hematopoietic cells from buffy coats of healthy human donors; or 2) directly from LeukoPak donations. Human primary B cells were isolated from the PBMCs utilizing negative selection with commercial kits following the manufacturer's protocol (StemCells Catalog #17954) to yield >95% CD20+ cells assessed by flow cytometry. Primary human B cells were plated at 0.7-1×10^5 per well in a 96-well plate with Cbl-b inhibitors over a dose ranging from 10 μM to 1 nM and incubated at 37° C. 5% CO2, with a final DMSO concentration of <0.5%. Cells were stimulated with anti-IgM for 20 hours at 37° C. 5% CO2. Surface activation markers on mature CD20^+ IgD^+ B cells were monitored by FACS using an anti-CD69 antibody (BD Biosciences).
Cbl-b inhibitors were tested to determine their ability to induce or enhance surface expression of cell surface markers on B cells (e.g., CD69), which is indicative of B cell activation.
Readouts were reported as area under curve (AUC) of the dose response curve of CD69 mean fluorescence intensity (MFI) normalized to the DMSO control. Baseline for this study was the measurement obtained from primary human B cells treated with DMSO in the presence of 2.5 μg/mL of anti-IgM-F(ab′)2. […] Compounds were ranked into bins according to their readouts as follows: A indicates ≤0.5, B indicates 0.5-1.00, C indicates 1.01-1.50, and D indicates ≥1.51.

| Compound | fold induction at 1 µM [1] | fold induction at 8 µM [1] | fold induction at 3 µM [2] | fold induction at 10 µM [2] | CD69 MFI AUC [3] |
| --- | --- | --- | --- | --- | --- |
| Cn1cnnc1CC1(c2cccc(N3Cc4c(cc(CN5CC(F)C5)cc4C(F)(F)F)C3=O)c2)COC1 [Compound 415, 6-((3-fluoroazetidin-1-yl)methyl)-2-(3-(3-((4-methyl-4H-1,2,4-triazol-3-yl)methyl)oxetan-3-yl)phenyl)-4-(trifluoromethyl)isoindolin-1-one] | > 1 | > 1 | 2.01 to 3 | > 3.01 | C (C indicates 1.01-1.50) |
| Cn1cnnc1CC1(c2cccc(N3Cc4c(cc(CN5CCC6(CC6)C5)cc4C(F)(F)F)C3=O)c2)COC1 [Compound 520, 6-((5-azaspiro[2.4]heptan-5-yl)methyl)-2-(3-(3-((4-methyl-4H-1,2,4-triazol-3-yl)methyl)oxetan-3-yl)phenyl)-4-(trifluoromethyl)isoindolin-1-one] | > 1 |  | > 3.01 | > 3.01 | D (D indicates ≥1.51) |
| Cn1cnnc1CC1(c2cccc(NC(=O)c3cc(CN4CCC5(CC5)C4)cc(C4CC4)n3)c2)COC1 [Compound 519, 4-((5-azaspiro[2.4]heptan-5-yl)methyl)-6-cyclopropyl-N-(3-(3-((4-methyl-4H-1,2,4-triazol-3-yl)methyl)oxetan-3-yl)phenyl)picolinamide] | > 1 |  | > 3.01 | > 3.01 | D (D indicates ≥1.51) |
| C[C@H](Cc1nncn1C)c1cccc(N2Cc3c(cc(CN4CC[C@](C)(O)C4)cc3C(F)(F)F)C2=O)c1 [Compound 398, 6-(((S)-3-hydroxy-3-methylpyrrolidin-1-yl)methyl)-2-(3-((R)-1-(4-methyl-4H-1,2,4-triazol-3-yl)propan-2-yl)phenyl)-4-(trifluoromethyl)isoindolin-1-one] | > 1 | > 1 | 2.01 to 3 | 2.01 to 3 | B (B indicates 0.5-1.00) |
| Cn1cnnc1CC1(c2cccc(N3Cc4c(cc(CN5CC[C@H](C#N)C5)cc4C(F)(F)F)C3=O)c2)COC1 [Compound 422, (S)-1-((2-(3-(3-((4-methyl-4H-1,2,4-triazol-3-yl)methyl)oxetan-3-yl)phenyl)-3-oxo-7-(trifluoromethyl)isoindolin-5-yl)methyl)pyrrolidine-3-carbonitrile] | > 1 | > 1 | < 2 | 2.01 to 3 | C (C indicates 1.01-1.50) |
| Cn1cnnc1C(F)(F)[C@](C)(F)c1cccc(N2Cc3c(cc(C(=O)N4CC[C@H](O)C4)cc3C(F)(F)F)C2=O)c1 [Compound 438, 6-((S)-3-hydroxypyrrolidine-1-carbonyl)-2-(3-((R)-1,1,2-trifluoro-1-(4-methyl-4H-1,2,4-triazol-3-yl)propan-2-yl)phenyl)-4-(trifluoromethyl)isoindolin-1-one] | 0.801 to 1 | > 1 | < 2 | < 2 | A (A indicates ≤0.5) |
| Cn1cnnc1C(F)(F)[C@](C)(F)c1cccc(N2Cc3c(cc(N4CCNCC4)cc3C(F)(F)F)C2=O)c1 [Compound 442, (R)-6-(Piperazin-1-yl)-2-(3-(1,1,2-trifluoro-1-(4-methyl-4H-1,2,4-triazol-3-yl)propan-2-yl)phenyl)-4-(trifluoromethyl)isoindolin-1-one] | > 1 | 0.801 to 1 | < 2 | < 2 | B (B indicates 0.5-1.00) |
| C[C@H](c1cc2c(c(C(F)(F)F)c1)CN(c1cccc(C3(Cc4nncn4C)COC3)c1)C2=O)N1CC[C@H](F)C1 [Compound 413, 6-((R)-1-((S)-3-fluoropyrrolidin-1-yl)ethyl)-2-(3-(3-((4-methyl-4H-1,2,4-triazol-3-yl)methyl)oxetan-3-yl)phenyl)-4-(trifluoromethyl)isoindolin-1-one] | > 1 | > 1 | 2.01 to 3 | > 3.01 | C (C indicates 1.01-1.50) |
| Cc1n[nH]c(C)c1-c1cc2c(c(C(F)(F)F)c1)CN(c1cccc(C3(Cc4nncn4C)COC3)c1)C2=O [Compound 385, 6-(3,5-dimethyl-1H-pyrazol-4-yl)-2-(3-{3-[(4-methyl-4H-1,2,4-triazol-3-yl)methyl]oxetan-3-yl}phenyl)-4-(trifluoromethyl)-2,3-dihydro-1H-isoindol-1-one] | > 1 | > 1 | < 2 | < 2 | C (C indicates 1.01-1.50) |
| C[C@@H](c1cc2c(c(C(F)(F)F)c1)CN(c1cccc(C3(Cc4nncn4C)COC3)c1)C2=O)N1CC[C@H](F)C1 [Compound 412, 6-((S)-1-((S)-3-fluoropyrrolidin-1-yl)ethyl)-2-(3-(3-((4-methyl-4H-1,2,4-triazol-3-yl)methyl)oxetan-3-yl)phenyl)-4-(trifluoromethyl)isoindolin-1-one] | > 1 | > 1 | > 3.01 | > 3.01 | D (D indicates ≥1.51) |
| C[C@H](Cc1nncn1C)c1cccc(N2Cc3c(cc(CN4CC(O)C4)cc3C(F)(F)F)C2=O)c1 [Compound 393, (R)-6-((3-hydroxyazetidin-1-yl)methyl)-2-(3-(1-(4-methyl-4H-1,2,4-triazol-3-yl)propan-2-yl)phenyl)-4-(trifluoromethyl)isoindolin-1-one] | > 1 | > 1 | < 2 | 2.01 to 3 | B (B indicates 0.5-1.00) |
| C[C@H](Cc1nncn1C)c1cccc(N2Cc3c(cc(CN4CC(C)(O)C4)cc3C(F)(F)F)C2=O)c1 [Compound 397] | > 1 | > 1 | < 2 | 2.01 to 3 | B (B indicates 0.5-1.00) |
| Cn1cnnc1C(F)(F)[C@](C)(F)c1cccc(N2Cc3c(cc(CN4CC[C@@H](C#N)C4)cc3C(F)(F)F)C2=O)c1 [Compound 455, (R)-1-((3-oxo-2-(3-((R)-1,1,2-trifluoro-1-(4-methyl-4H-1,2,4-triazol-3-yl)propan-2-yl)phenyl)-7-(trifluoromethyl)isoindolin-5-yl)methyl)pyrrolidine-3-carbonitrile] | 0.801 to 1 | > 1 | < 2 | < 2 | C (C indicates 1.01-1.50) |
| Cn1cnnc1C(F)(F)[C@](C)(F)c1cccc(N2Cc3c(cc(CN4CC[C@@H](F)C4)cc3C(F)(F)F)C2=O)c1 [Compound 450] | > 1 | > 1 | < 2 | 2.01 to 3 | C (C indicates 1.01-1.50) |
| C[C@H](Cc1nncn1C)c1cccc(N2Cc3c(cc(CN4CC[C@H](F)C4)cc3C(F)(F)F)C2=O)c1 [Compound 399, 6-(((S)-3-fluoropyrrolidin-1-yl)methyl)-2-(3-((R)-1-(4-methyl-4H-1,2,4-triazol-3-yl)propan-2-yl)phenyl)-4-(trifluoromethyl)isoindolin-1-one] | > 1 | > 1 | 2.01 to 3 | > 3.01 | C (C indicates 1.01-1.50) |
| C[C@H](Cc1nncn1C)c1cccc(NC(=O)c2cc3cc(N4CCNCC4)ccc3cn2)c1 [Compound 472, N-{3-[(2R)-1-(4-methyl-4H-1,2,4-triazol-3-yl)propan-2-yl]phenyl}-6-(piperazin-1-yl)isoquinoline-3-carboxamide] | 0.801 to 1 | 0.801 to 1 | < 2 | < 2 | C (C indicates 1.01-1.50) |
